Measured values published in patent US20220087979A1, “TREATMENT OF MALIGNANCIES” (Board of Trustees of Michigan State University, priority 2017, published 2022).
pIC50: −log10 of the molar value.

Legend:
LC3B-II = assay: LC3B immunoblot in U87-MG cells; type: cell-based; settings: for amount of LC3B-II: TCH-165 10 μM 16 h or BafA1 100 nM 4 h, alone (FIG. 2A)
Experimental: (§1) U87-MG cells at 70% confluency were treated with test compounds at the reported concentration and time. Cells were washed with warm PBS and trypsinized with 0.25% Trypsin-EDTA. Samples were collected in chilled PBS, pelleted and washed twice with chilled PBS. Cells were then lysed with celLytic buffer supplemented with 1% sigma fast inhibitor cocktail. Total protein was quantified by BCA reagent, and 20 μg resolved on a 12% (LC3B) or 30 μg on a 4-12% (p62, ATG5, beclin1) Tris-glycine SDS-PAGE, and immunoblotted with antigen specific antibody (1:1000), and goat anti-rabbit HRP (1:1000). Blots were developed with ECL western reagent and imaged with x-ray film.
To determine whether TCH-165 affects LC3B-II formation, glioblastoma astrocytoma (U87-MG) cells were treated with TCH-165 and the level of LC3B-II monitored by immunoblot. U87-MG cells were incubated with different concentrations of TCH-165 and immunoblotted with LC3B-specific antibody. U87-MG cells were also treated with a specific amount of TCH-165 (10 μM) and evaluated at 0, 6, 12, and 24 hours. Cell lysates were immunoblotted with LC3B-specific antibody and anti-GAPDH as a loading control.
U87-MG cells were treated with either vehicle (DMSO) or TCH-165 (10 μM) for 16 h, followed by treatment with bafilomycin A1 (100 nM) for 4 h. Conversion of LC3BI to LC3BII was detected by immunoblot with LC3B-specific antibody.

HS BD = assay: Tumor cell growth inhibition, HS BD; type: cell-based; settings: Canis lupus familiaris; Canine Histiocytic Sarcoma cell line HS BD
Experimental: (§2) The pIC50 values shown in Table 1, herein, was determined as the negative log of the amount of compound required to inhibit tumor cell growth by 50% (the IC50). […] A pIC50 of 4 indicates an IC50 of 10-4.

HS PJ = assay: Tumor cell growth inhibition, HS PJ; type: cell-based; settings: Canis lupus familiaris; Canine Histiocytic Sarcoma cell line HS PJ
Experimental: as §2

HS DH82 = assay: Tumor cell growth inhibition, HS DH82; type: cell-based; settings: Canis lupus familiaris; Canine Histiocytic Sarcoma cell line HS DH82
Experimental: as §2

cOS D17 = assay: Tumor cell growth inhibition, cOS D17; type: cell-based; settings: Canis lupus familiaris; Canine Osteosarcoma cell line cOS D17
Experimental: as §2

cOS Abrams = assay: Tumor cell growth inhibition, cOS Abrams; type: cell-based; settings: Canis lupus familiaris; Canine Osteosarcoma cell line cOS Abrams
Experimental: as §2

cOS Gracie = assay: Tumor cell growth inhibition, cOS Gracie; type: cell-based; settings: Canis lupus familiaris; Canine Osteosarcoma cell line cOS Gracie
Experimental: as §2

cOS Ginger = assay: Tumor cell growth inhibition, cOS Ginger; type: cell-based; settings: Canis lupus familiaris; Canine Osteosarcoma cell line cOS Ginger
Experimental: as §2

cOS Brandie primary = assay: Tumor cell growth inhibition, cOS Brandie primary; type: cell-based; settings: Canis lupus familiaris; Canine Osteosarcoma cell line cOS Brandie primary
Experimental: as §2

cOS Brandie mets = assay: Tumor cell growth inhibition, cOS Brandie mets; type: cell-based; settings: Canis lupus familiaris; Canine Osteosarcoma cell line cOS Brandie mets
Experimental: as §2

cOS Blaz = assay: Tumor cell growth inhibition, cOS Blaz; type: cell-based; settings: Canis lupus familiaris; Canine Osteosarcoma cell line cOS Blaz
Experimental: as §2

Normal FB1 = assay: Cell growth inhibition, Normal FB1; type: cell-based; settings: Canis lupus familiaris; Canine Normal Firbroblasts Normal FB1
Experimental: as §2

Normal FB2 = assay: Cell growth inhibition, Normal FB2; type: cell-based; settings: Canis lupus familiaris; Canine Normal Firbroblasts Normal FB2
Experimental: as §2

Fel SCC1 = assay: Tumor cell growth inhibition, Fel SCC1; type: cell-based; settings: Felis catus; Feline Squamous Cell Carcinoma cell line Fel SCC1
Experimental: as §2

Fel SCC2 = assay: Tumor cell growth inhibition, Fel SCC2; type: cell-based; settings: Felis catus, SCC-2; Feline Squamous Cell Carcinoma cell line Fel SCC2
Experimental: as §2

Fel SCC3 = assay: Tumor cell growth inhibition, Fel SCC3; type: cell-based; settings: Felis catus, SCC-3; Feline Squamous Cell Carcinoma cell line Fel SCC3
Experimental: as §2

hOS Saos2 = assay: Tumor cell growth inhibition, hOS Saos2; type: cell-based; settings: SAOS-2; Human Osteosarcoma cell line hOS Saos2
Experimental: as §2

hOS U2OS = assay: Tumor cell growth inhibition, hOS U2OS; type: cell-based; settings: Human Osteosarcoma cell line hOS U2OS
Experimental: as §2

hOS MG63 = assay: Tumor cell growth inhibition, hOS MG63; type: cell-based; settings: MG-63; Human Osteosarcoma cell line hOS MG63
Experimental: as §2

Hela cells = assay: Tumor cell growth inhibition, Hela cells; type: cell-based; settings: Human Cervical Adenocarcinoma
Experimental: as §2

[1] = test system: lysosomes of HEK293T cells; assay: Lysosome de-acidification live imaging (LysoSensor yellow/blue dextran, LAMP1-RFP); type: cell-based, Human; settings: cells expressing LAMP1-RFP; TCH-165 10 μM, chloroquine 100 μM
Experimental: HEK293T cells cultured on cover glass slides were transduced with 30 particles per cell of LAMP1-RFP and cultured for 24 h. Cells were then incubated with either vehicle, TCH-165 (10 μM) or chloroquine (100 μM) for 12 h. LysoSensor Yellow/Blue dextran, 10,000 MW, Anionic (1 mg/mL) was then added for a further 12 h and cells imaged with an upright 60× Plan Apo oil objective on a Nikon A1 confocal microscope using standard filter sets for RFP, blue and yellow dyes.
Lysosensor yellow/blue dextran is a pH sensitive dye that is […] (neutral pH). Lysosomes were distinguished from other acidic organelles by imaging with a combination of lysosensor yellow/blue dextran and LAMP1-RFP.

LC3B = assay: Confocal immunofluorescence of LC3B in U87-MG cells; type: cell-based
Experimental: (§4) U87-MG cells were plated in complete medium at 2.5×10^5 cells/well of a four-chamber glass slide overnight. Fresh medium (500 μL) containing the test compound was added and allowed to incubate for the desire time under cell culture conditions. Cells were washed with chilled immunofluorescent (IF) wash buffer (1×PBS, pH 8.0) and fixed with methanol at −20° C. for 10 minutes. Cells were then washed 2× with IF wash buffer and incubated in blocking buffer (1×PBS, 5% normal goat serum, 0.3% Triton X-100 pH 8.0) for 1 h at RT. Blocking buffer was replaced with primary antibody diluted in dilution buffer (1×PBS, 1% BSA, 0.3% Triton X-100 pH 8.0) overnight (1:200) at 40° C. Primary antibody was washed off 3× and incubated in anti-rabbit Alexa Fluor 488 (1:500) and/or anti-mouse Alexa Fluor 594 for 1 h in the dark, at RT. Secondary antibodies were then washed off (3×) and nuclei stained with Hoechst (4 μg/mL) at RT, for 20 minutes. DNA dye was rinsed off and slides mounted in Prolong Gold and allowed to cure overnight at RT, in the dark. Slides were sealed with nail polish, and LC3B, LAMP1 and p62 punctae detected with a 60× Plan Apo oil objective on a Nikon C2+ or Nikon A1 confocal laser microscope.
LC3B polypeptides were stained with LC3B antibody/Alexa Fluor 488 secondary (green) and the cellular nuclei were stained with Hoechst DNA dye (blue).

U87-MG cells [2] = assay: Cell viability assay (MTS assay); type: cell-based; settings: 72 h
Experimental: (§3) FIG. 5B graphically illustrates the viability of glioblastoma cells treated with different concentrations of TCH-165 or TCH-023 for 72 h. MTS reagent was added to quantify cell viability and the absorbance measured at 490 nm 2 h later. Absorbance readings are expressed as percentage of vehicle control for three independent experiments and data are graphed as mean±SD.
as §3, with “5D is a bar graph showing” for “5B graphically illustrates”, “temozolomide” for “TCH-023”, “was then” for “was”, “added” for “added to quantify cell viability”, “and” for “and the”
U87-MG cells were seeded in a clear 96-well plate at a density of 1.0×10^4 cells per well. Cells were treated with different concentrations of TCH-165 or temozolomide for 72 h. MTS solution (20 μL) was then added and incubated under cell culture conditions for 2 h. Absorbance was read at 490 nm and expressed as a percentage of vehicle control.

MCT C2 = assay: Tumor cell growth inhibition, MCT C2; type: cell-based; settings: Canis lupus familiaris; Canine Mastocytoma cell line MCT C2
Experimental: as §2

HEK293 = assay: Cell growth inhibition, HEK293; type: cell-based; settings: Human Embryonic Kidney HEK293
Experimental: as §2

U87-MG cells [3] = assay: Cytotoxicity assay (LDH assay); type: cell-based; settings: Homo sapiens, U-87 MG, LDH-based assay, 72 h, FIG. 5E-5F
Experimental: U87-MG cells were seeded in a clear 96-well plate at a density of 1.0×10^4 cells per well. Cells were treated with different concentrations of TCH-165 or temozolomide for 72 h. Culture medium was then assayed for lactate dehydrogenase (LDH) activity according to the manufacturer's protocol. Briefly, cells for maximum toxicity were treated with 10 μL of lysis buffer 45 minutes prior to enzyme assay. Culture media (50 μL) were then transferred to new 96 well plate and 50 μL of substrate mix added. The reaction mixtures were incubated at RT protected from light for 30 minutes. Stop solution (50 μL) was then added and absorbance read at 490 nm. Toxicity was expressed as a fraction of sample treated with lysis buffer.

[4] = test system: lysosome associated membrane protein (LAMP)-1; assay: Confocal immunofluorescence of LAMP1 in U87-MG cells; type: cell-based; settings: 10 μM, 24 h, FIG. 1D
Experimental: as §4

p62 [5] = assay: p62 immunoblot in U87-MG cells; type: cell-based; settings: concentration (FIG. 2C) and time (10 μM; 0-24 h, FIG. 2D) dependent
Experimental: as §1

p62 [6] = assay: Confocal immunofluorescence of p62 in U87-MG cells; type: cell-based; settings: 10 μM, 24 hr, immunofluorescence imaging
Experimental: All statistical analyses were performed on densitometry data (imageJ) of five individual experiments. Data are graphed as mean±SD and were analyzed by One-Way ANOVA with Bonferroni's multiple comparison test or by student t-test for 2 samples (ns=not significant, *p<0.05, *p<0.01, **p<0.001).
U87-MG cells were plated in complete medium at 2.5×10^5 cells/well of a four-chamber glass slide overnight. Fresh medium (500 μL) containing the test compound was added and allowed to incubate for the desire time under cell culture conditions. Cells were washed with chilled immunofluorescent (IF) wash buffer (1×PBS, pH 8.0) and fixed with methanol at −20° C. for 10 minutes. Cells were then washed 2× with IF wash buffer and incubated in blocking buffer (1×PBS, 5% normal goat serum, 0.3% Triton X-100 pH 8.0) for 1 h at RT. Blocking buffer was replaced with primary antibody diluted in dilution buffer (1×PBS, 1% BSA, 0.3% Triton X-100 pH 8.0) overnight (1:200) at 40° C. Primary antibody was washed off 3× and incubated in anti-rabbit Alexa Fluor 488 (1:500) and/or anti-mouse Alexa Fluor 594 for 1 h in the dark, at RT. Secondary antibodies were then washed off (3×) and nuclei stained with Hoechst (4 μg/mL) at RT, for 20 minutes. […] Slides were sealed with nail polish, and LC3B, LAMP1 and p62 punctae detected with a 60× Plan Apo oil objective on a Nikon C2+ or Nikon A1 confocal laser microscope.

autolysosome formation [7] = assay: Tandem RFP-GFP-LC3B autophagy sensor in U87-MG cells; type: cell-based; settings: 10 μM, 24 h, FIG. 3A
Experimental: By combining an acid insensitive red fluorescent protein (RFP) with an acid sensitive green fluorescent protein (GFP), the conversion of autophagosomes (with neutral pH) to an autolysosome (with acidic pH) can be visualized by monitoring the specific loss of the GFP fluorescence upon acidification of the autophagosome following lysosomal fusion.
U87-MG cells were transduced with 30 particles per cell of tandem-RFP-GFP-LC3B and cultured for 24 h. Cells were then incubated with either vehicle or TCH-165 (10 μM) for an additional 24 h. Cells were fixed with 4% formaldehyde, counter stained with Hoechts DNA dye, and imaged on a Nikon C2 confocal microscope using standard filter sets for blue dye, GFP and RFP.

autolysosome formation [8] = assay: Co-localization of LC3B with LAMP1 in U87MG cells; type: cell-based; settings: 10 μM, 24 h
Experimental: as §4
Co-localization of LC3B with LAMP1 was therefore examined to distinguish inhibition of autolysosome formation from autolysosome de-acidification. […]

beclin-1, ATG5 and ATG12 = assay: Immunoblot of autophagic regulators in U87-MG cells; type: cell-based; settings: 24 h, FIG. 4
Experimental: as §1

[9] = dog, in vivo

Compound: CO/C1=C\C(C)=C\[C@@H](C)[C@@H](O)[C@@H](C)C/C(C)=C/C=C/[C@H](OC)[C@@H]([C@@H](C)[C@@H](O)[C@H](C)[C@@]2(O)C[C@@H](O)[C@H](C)[C@@H](C(C)C)O2)OC1=O [BafA1, bafilomycin A1, reference compound]
- amount of LC3B-II (LC3B-II; U87-MG): significant increase

Compound: CCOC(=O)[C@]1(c2ccccc2)N=C(c2ccccc2)N(Cc2ccccc2)[C@@H]1c1ccccc1 [TCH-013]
- pIC50 (HS BD): 5.30
- pIC50 (HS PJ): 5.40
- pIC50 (HS DH82): 5.00
- pIC50 (cOS D17): 4.70
- pIC50 (cOS Abrams): 4.80
- pIC50 (cOS Gracie): 5.20
- pIC50 (cOS Ginger): 5.50
- pIC50 (cOS Brandie primary): 5.00
- pIC50 (cOS Brandie mets): 4.80
- pIC50 (cOS Blaz): 4.90
- pIC50 (Normal FB1): 3.70
- pIC50 (Normal FB2): 4.40
- pIC50 (Fel SCC1): 5.00
- pIC50 (Fel SCC2): 3.70
- pIC50 (Fel SCC3): 4.30
- pIC50 (hOS Saos2): 5.30
- pIC50 (hOS U2OS): 4.80
- pIC50 (hOS MG63): 4.70
- pIC50 (Hela cells): 5.00

Compound: CCN(CC)CCCC(C)Nc1ccnc2cc(Cl)ccc12 (centres unmarked) [chloroquine, reference compound]
- lysosensor yellow/blue dextran fluorescence of lysosomes [1]: shifted the fluorescence to the yellow spectrum

Compound: CCC(=O)N1CCN(c2ccc(-n3c(=O)ccc4cnc5ccc(-c6cnc7ccccc7c6)cc5c43)cc2C(F)(F)F)CC1 [torin1, reference compound]
- accumulation of autophagic vacuoles (LC3B; torin1 100 nM alone, FIG. 2B): modest accumulation

Compound: Cn1nnc2c(C(N)=O)ncn2c1=O [TMZ, temozolomide]
- U87-MG cells killed (U87-MG cells [2]; 1 mM, FIG. 5D): 54%

Compound: CCOC(=O)[C@]1(c2ccccc2)N=C(c2ccc(OC)cc2)N(Cc2ccccc2)[C@@H]1c1ccc(NCc2ccccc2)cc1 [TCH-165]
- pIC50 (HS BD): 5.20
- pIC50 (HS PJ): 5.50
- pIC50 (HS DH82): 5.70
- pIC50 (cOS D17): 5.20
- pIC50 (cOS Abrams): 4.90
- pIC50 (cOS Gracie): 5.70
- pIC50 (cOS Ginger): 5.10
- pIC50 (cOS Brandie primary): 5.50
- pIC50 (cOS Brandie mets): 5.40
- pIC50 (cOS Blaz): 5.20
- pIC50 (MCT C2): 4.00
- pIC50 (Normal FB1): 3.70
- pIC50 (Normal FB2): 4.70
- pIC50 (Fel SCC1): 5.70
- pIC50 (Fel SCC2): 4.60
- pIC50 (Fel SCC3): 3.70
- pIC50 (hOS Saos2): 5.50
- pIC50 (hOS U2OS): 5.30
- pIC50 (hOS MG63): 5.50
- pIC50 (Hela cells): 5.10
- pIC50 (HEK293): 5.70
- GI50 (U87-MG cells [2]; Homo sapiens, U-87 MG, U87-MG, MTS-based assay, FIG. 5B): 4.5 µM
- GI50 (U87-MG cells [3]): 7 µM
- LC3B-II levels versus TCH-165 alone (LC3B-II; U87-MG, TCH-165 10 μM 16 h followed by BafA1 100 nM 4 h): did not further increase
- amount of LC3B-II (LC3B-II; U87-MG): significant increase
- LC3B-II levels (LC3B-II; U87-MG, different concentrations, 10 μM at 0, 6, 12, 24 h (FIG. 1A, 1B)): increases LC3B-II levels
- number of LC3B punctate (LC3B; 10 μM, 16 hours, FIG. 1C): significant increase
- number of autophagic vacuoles (LC3B; torin1 100 nM 4 h followed by TCH-165 10 μM 16 h, FIG. 2B): significantly increased
- number of lysosomes (LAMP1 staining) [4]: increased numbers of lysosomes
- p62 level (p62 [5]): increase in p62
- p62 punctae (p62 [6]): increase in p62 punctae
- GFP and RFP fluorescence of vacuoles in RFP-GFP-LC3B cells (autolysosome formation [7]): retained both GFP and RFP positive vacuoles
- Co-localization of LC3B and LAMP1 (autolysosome formation [8]): not observed
- lysosensor yellow/blue dextran fluorescence of lysosomes [1]: mainly had red/blue vacuoles
- effect on expression of beclin-1, ATG5 and ATG12 (beclin-1, ATG5 and ATG12): did not appear to have any significant effect
- tolerance / signs of toxicity [9]: without showing any clinical or biochemical signs of toxicity

Compound: CCOC(=O)[C@]1(c2ccccc2)N=C(c2ccccc2)N[C@@H]1c1ccccc1 [TCH-023, reference compound]
- induction of cell death (U87-MG cells [2]; U87-MG): did not induce any cell death
- LC3B-II accumulation (LC3B-II; U87-MG, structurally related control): no effect
- inhibition of autophagy (LC3B immunoblot) (LC3B-II; glioblastoma cells, 10 μM, 24 h, FIG. 5C): did not inhibit autophagy
